Where two headings read alike, the source gives them in different places.
Experiments:
[1] = system: R17 bacteriophage; assay: R17 bacteriophage inactivation at constant concentration, varying doses of UV light; format: cell-based; settings: 1.0-3.0 J/cm^2, FIGS. 11-17
Procedure: Compounds of the present invention were also tested at a constant concentration for varying doses of UV light. Three sets of 1.5 mL tubes were prepared containing 0.6mL aliquots of R17 in DMEM (prepared as described above). The compound tested was added at the desired concentration and the samples were vortexed. The samples were then irradiated at intervals of 1.0 J/cm^2, until 3.0 J/cm^2 was reached. Between each 1.0 J/cm^2 interval, 100 μL was removed from each sample and placed in the first corresponding dilution tube, then five sequential dilutions were performed for each compound tested, at all 3 irradiation doses, as described above in this example.
Then 50 μL of Hfr 3000 bacteria was added to each tube, 3 mL of top agar was added and the tube contents were vortexed The contents of each tube was poured into its own LB plate and the plates were incubated overnight at 37° C. Plaques were counted by visual inspection the following morning.

[2] = system: Salmonella tester strain TA102; assay: Ames test, strain TA102
Procedure: In this example the compounds of the present invention are tested for their dark mutagenicity using an Ames assay. The procedures used for the Salmonella mutagenicity test as described in detail by Maron and Ames were followed exactly. Maron, D. M. and B. N. Ames, Mutation Research 113: 173 ( 1983). A brief description for each procedure is given here. The tester strains TA97a, TA98, TA100, TA102, TA1537 and TA1538 were obtained from Dr. Ames. TA97a, TA98, TA1537 and TA1538 are frameshift tester strains. TA100 and TA102 are base-substitution tester strains. Upon receipt each strain was cultured under a variety of conditions to confirm the genotypes specific to the strains.
The first tests done with the strains were to determine the range of spontaneous reversion for each of the strains. With each mutagenicity experiment the spontaneous reversion of the tester strains to histidine independence was measured and expressed as the number of spontaneous revertants per plate. This served as the background controls.
For all experiments, the pre-incubation procedure was used. In this procedure one vial of each tester strain was thawed and 20 μL of this culture was added to 6 mL of Oxoid Nutrient Broth #2. This solution was allowed to shake for 10 hours at 37° C. In the pre-incubation procedure, 0.1 mL of this overnight culture was added to each of the required number of sterile test tubes. To half of the tubes 0.5 mL of a 10% S-9 solution containing Aroclor 1254 induced rat liver extract (Molecular Toxicology Inc., Annapolis, Md.), and MgCl2, KCl, glucose-6-phosphate, NADP, and sodium phosphate buffer (Sigma, St. Louis, Mo.) were added. To the other half of the tubes 0.5 mL of 0.2M sodium phospate buffer, pH 7.4, was used in place of the S-9 mixture (the—S9samples). Finally 0.1 mL of the test solution containing either 0, 0.1, 0.5, 1, 5, 10, 50, 100, 250, or 500 μg/mL of the test compound was added. The 0.7 mL mixture was vortexed and then pre-incubated while shaking for 20 minutes at 37° C. After shaking, 2 mL of molten top agar supplemented with histidine and biotin were added to the 0.7 mL mixture and immediately poured onto a minimal glucose agar plate (volume of base agar was 20 mL). The top agar was allowed 30 minutes to solidify and then the plates were inverted and incubated for 44 hours at 37° C. After incubation the number of revertant colonies on each plate were counted. […] (“n” represents the number of replicates performed for each data point.)

[3] = system: Salmonella tester strain TA97a
Outline: (§1)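 Pre-incubation Ames method: overnight culture plus 10% Aroclor 1254-induced rat liver S-9 mix or 0.2M phosphate buffer pH 7.4, with test solutions of 0–500 μg/mL, shaken 20 min at 37° C. Plated in histidine/biotin top agar on minimal glucose agar, revertant colonies counted after 44 h at 37° C against spontaneous-revertant background.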

[4] = system: Pseudomonas; assay: Bacterial inactivation, colony forming units; format: cell-based; settings: 16 μM; 5 J/cm^2 irradiation; starting titer 6.5 logs
Procedure: The bacteria, a strain of Pseudomonas, was inoculated into LB with a sterile loop and grown overnight in a shaker at 37° C. Based on the approximation that one OD at 610 mn is equivalent to 5×10^8 colony forming units (cfu)/mL, a 1:10 dilution of the culture was measured on a spectrophotometer, (manufactured by Shimatsu). The bacterial culture was added to a solution of 15% fetal bovine serum in DMEM to a final bacteria concentration of approximately 10^6/mL. An aliquot (0.8 mL) was transferred to a 1.5 mL snap-top polyethylene tube. An aliquot (0.004-0.040 mL) of the test compound stock solution prepared in water, ethanol or dimethylsulfoxide at 0.80-8.0 mM was added to the tube. Compounds were tested at a concentration of 16 μM. The tubes were placed in a light device as described in EXAMPLE 1 and irradiated with 1.3 J/cm^2, 1.2 J/cm^2, and finally 2.5 J/cm^2, for a total of 5 J/cm^2. 150 μL were removed for testing after each pulse period. Sterile 13 mL dilution tubes were prepared; each test compound required one tube with 0.4 mL of LB broth and four tubes containing 0.5 mL of LB broth. […] The colony forming units were then counted the following morning and the titer of the phage remaining after phototreatment was calculated based on the dilution factors. […]

[5] = system: platelets; assay: Partitioning of S-59 in platelet concentrate before and after UVA illumination; format: in vitro ADME; settings: % of the original S-59, after UVA
Text: During the UVA illumination process, S-59 undergoes a photochemical reaction to form several low molecular weight photoproducts in addition to associating with macromolecules in both the platelet and the plasma fractions. […] This fraction of low molecular weight photoproducts is removed during the scrub process, and their removal can be monitored both by HPLC and by radioactivity measurement using ^3H-labeled S-59.
The S-59 which is not amenable to removal by the scrub/capture process can also be monitored using ^3H-labeled S-59.

[6] = system: Salmonella tester strain TA100
Outline: as §1

Cc1oc2c(C)c3oc(=O)cc(C)c3cc2c1CNCCCCN [Compound 6, 4′-(6-amino-2-aza)hexyl-4,5′,8-trimethylpsoralen]
R17 inactivation efficiency compared with AMT (in words) [1]: more efficient at inactivating R17 than was AMT

Cc1oc2c(C)c3oc(=O)cc(C)c3cc2c1CN [AMT, 4′-Aminomethyl-4,5′,8-trimethylpsoralen, reference compound]
revertant colonies per plate ([2]; TA102 + S9, 0.1 μg/plate): −20 | revertant colonies per plate ([2]; TA102 + S9, 0.5 μg/plate): 5 | revertant colonies per plate ([2]; TA102 + S9, 1 μg/plate): −17 | revertant colonies per plate ([2]; TA102 + S9, 5 μg/plate): 51 | revertant colonies per plate ([2]; TA102 − S9, 0.1 μg/plate): 27 | revertant colonies per plate ([2]; TA102 − S9, 0.5 μg/plate): 47 | revertant colonies per plate ([2]; TA102 − S9, 1 μg/plate): 88 | revertant colonies per plate ([2]; TA102 − S9, 5 μg/plate): 266 | revertant colonies per plate ([3]; TA97a + S9, 0.1 μg/plate): −23 | revertant colonies per plate ([3]; TA97a + S9, 0.5 μg/plate): 32 | revertant colonies per plate ([3]; TA97a + S9, 1 μg/plate): 32 | revertant colonies per plate ([3]; TA97a + S9, 5 μg/plate): 149 | revertant colonies per plate ([3]; TA97a − S9, 0.1 μg/plate): 14 | revertant colonies per plate ([3]; TA97a − S9, 0.5 μg/plate): 9 | revertant colonies per plate ([3]; TA97a − S9, 1 μg/plate): 54 | revertant colonies per plate ([3]; TA97a − S9, 5 μg/plate): 73 | log kill of Pseudomonas [4]: 5.2 logs

Cc1oc2c(C)c3oc(=O)cc(C)c3cc2c1COCCN [Compound 2, 4′-(4-amino-2-oxa)butyl-4,5′,8-trimethylpsoralen]
photo-reaction products of S-59 [5]: 40-50% | revertant colonies per plate ([6]; TA100 + S9, 5 μg/plate): −18 | revertant colonies per plate ([6]; TA100 + S9, 10 μg/plate): 1 | revertant colonies per plate ([6]; TA100 + S9, 50 μg/plate): 115 | revertant colonies per plate ([6]; TA100 + S9, 100 μg/plate): 96 | revertant colonies per plate ([6]; TA100 − S9, 5 μg/plate): 103 | revertant colonies per plate ([6]; TA100 − S9, 10 μg/plate): 46 | revertant colonies per plate ([6]; TA100 − S9, 50 μg/plate): 182 | revertant colonies per plate ([6]; TA100 − S9, 100 μg/plate): 121
